# Data as given in patent US9228998B2, “Drug monitoring methods using the promyelocytic leukemia protein as a redox sensor” (Institut National de la Sante et de la Recherche Medicale …, priority 2010, dated 2016).
# “Also recorded” adds a separate entry of the source.
# Columns and labels:
# [1] = biological target: T1, PML NBs (Homo sapiens, UniProt P29590); assay: PML NB labelling in in situ nuclear matrix preparations (immunofluorescence); assay type: cell-based; details: nuclear matrix prepared in situ, exposure to DTT
# T1 construct: endogenous in cells
# T1 sequence (P29590 1-882): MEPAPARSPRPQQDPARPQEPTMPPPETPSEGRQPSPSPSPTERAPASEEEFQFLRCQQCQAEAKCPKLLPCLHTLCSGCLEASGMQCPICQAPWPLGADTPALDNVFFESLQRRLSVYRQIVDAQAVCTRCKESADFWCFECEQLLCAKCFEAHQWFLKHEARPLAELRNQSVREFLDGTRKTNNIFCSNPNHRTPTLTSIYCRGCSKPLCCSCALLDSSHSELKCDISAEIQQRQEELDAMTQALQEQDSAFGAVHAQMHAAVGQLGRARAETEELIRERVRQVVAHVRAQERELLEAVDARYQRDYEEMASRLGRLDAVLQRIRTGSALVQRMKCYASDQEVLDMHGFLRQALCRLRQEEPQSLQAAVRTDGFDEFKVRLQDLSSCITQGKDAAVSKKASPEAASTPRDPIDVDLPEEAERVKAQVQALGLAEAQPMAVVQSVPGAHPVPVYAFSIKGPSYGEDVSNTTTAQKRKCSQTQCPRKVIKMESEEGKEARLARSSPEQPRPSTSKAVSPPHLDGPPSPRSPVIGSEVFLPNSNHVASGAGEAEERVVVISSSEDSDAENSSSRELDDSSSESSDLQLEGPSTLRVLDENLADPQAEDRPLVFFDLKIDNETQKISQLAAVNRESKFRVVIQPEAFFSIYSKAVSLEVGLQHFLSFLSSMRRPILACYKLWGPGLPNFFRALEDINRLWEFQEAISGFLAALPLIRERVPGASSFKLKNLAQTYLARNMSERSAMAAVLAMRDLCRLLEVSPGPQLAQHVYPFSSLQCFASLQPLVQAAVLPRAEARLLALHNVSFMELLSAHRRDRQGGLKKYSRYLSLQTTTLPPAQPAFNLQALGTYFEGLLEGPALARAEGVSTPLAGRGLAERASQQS
# Protocol: (§1) Immunofluorescence, electronic microscopy and antibodies were previously described^15. In situ nuclear matrix preparations were prepared as described^1. Confocal analyses were performed on a LSM510 Meta laser microscope (Carl Zeiss MicroImaging, Inc.) with a plan apochromat 63X N.A.1.4 oil immersion objective and increased resolution images were obtained with deconvolution software (Autodeblur, Image Quant) using blind iterative algorithms.
# (§2) Intermolecular disulfide bonds were previously implicated in stabilization of the nuclear matrix. […] We then compared total and nuclear matrix extracts from transiently transfected CHO cells under non-reducing conditions and observed that the matrix fraction was dramatically enriched in covalent PML dimers.
# The matrix-associated PML fraction is hypersumoylated. Conversely, deletion of the coiled-coil of PML abrogates its association to the nuclear matrix, NB formation, and sumoylation. Thus, whereas As2O3 induces PML targeting to the matrix and NB formation independently of sumoylation, matrix association contributes to basal or As2O3-enhanced PML sumoylation. We therefore questioned how As2O3 could promote transfer from soluble diffuse nuclear PML to insoluble, matrix-associated NBs. As2O3 controls protein phosphorylation and ROS production. […]
# [2] = tested on: lamin B; assay: lamin B staining in in situ nuclear matrix preparations; assay type: cell-based; details: nuclear matrix prepared in situ, exposure to DTT
# Protocol: as §1
# The mouse anti-GFP antibody was from Roche Applied Science; Goat polyclonal anti-Lamin B (M20), rabbit polyclonal anti-RXRa (D20) and anti-Daxx (M-112) were from Santa Cruz Biotechnology. Rabbit polyclonal anti-Daxx from G. Grosveld was used for Western blot analysis. Anti SUMO-1 (mouse monoclonal anti GMP-1 antibody) and Rabbit polyclonal anti-SUMO-2/3 antibodies were from Zymed Laboratories. Rabbit polyclonal anti-RARA115 was a kind gift of Pierre Chambon. […] Fluorescence was quantified with ImageJ software.
# as §2
# The matrix-associated PML fraction is hypersumoylated. […]
smiles,measurement,setting,value
O[C@@H](CS)[C@@H](O)CS [DTT],PML NB labelling in in situ nuclear matrix,[1],PML NB labelling was lost; also recorded: disrupted endogenous PML NBs
same,lamin B staining,[2],unaffected; also recorded: without affecting lamin-B staining
